Data from patent US20060089378A1 (priority 2004, published 2006).
Where two headings read alike, the source gives them in different places.

Columns and labels:
[1] = biological target: CB1 receptor (human) (Homo sapiens, UniProt P21554); assay: cell-based
[2] = biological target: T1, Cannabinoid CB1 Receptor (Homo sapiens, UniProt P21554); assay: Binding assay for CB1 agonists or inverse agonists (radioligand competition, membranes of transfected SK-N-MC cells)
T1 construct: expressed in transfected cells

[3] = biological target: T2, Cannabinoid CB2 Receptor (Homo sapiens, UniProt P34972); assay: Binding assay for CB2 agonists or inverse agonists (radioligand competition, membranes of transfected SK-N-MC cells); conditions: read-out: Cannabinoid CB2 Receptor Binding percent inhibition
T2 construct: expressed in transfected cells
T2 sequence (P34972 whole entry): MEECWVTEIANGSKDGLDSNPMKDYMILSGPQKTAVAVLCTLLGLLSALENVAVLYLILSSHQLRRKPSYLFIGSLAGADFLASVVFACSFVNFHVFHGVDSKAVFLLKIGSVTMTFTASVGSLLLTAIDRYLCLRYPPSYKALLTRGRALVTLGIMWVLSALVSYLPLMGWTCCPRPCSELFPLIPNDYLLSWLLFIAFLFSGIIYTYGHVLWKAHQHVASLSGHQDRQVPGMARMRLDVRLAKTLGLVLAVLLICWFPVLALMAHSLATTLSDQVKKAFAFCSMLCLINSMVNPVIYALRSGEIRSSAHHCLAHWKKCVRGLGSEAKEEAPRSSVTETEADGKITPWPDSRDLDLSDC

T1 sequence (P21554 whole entry): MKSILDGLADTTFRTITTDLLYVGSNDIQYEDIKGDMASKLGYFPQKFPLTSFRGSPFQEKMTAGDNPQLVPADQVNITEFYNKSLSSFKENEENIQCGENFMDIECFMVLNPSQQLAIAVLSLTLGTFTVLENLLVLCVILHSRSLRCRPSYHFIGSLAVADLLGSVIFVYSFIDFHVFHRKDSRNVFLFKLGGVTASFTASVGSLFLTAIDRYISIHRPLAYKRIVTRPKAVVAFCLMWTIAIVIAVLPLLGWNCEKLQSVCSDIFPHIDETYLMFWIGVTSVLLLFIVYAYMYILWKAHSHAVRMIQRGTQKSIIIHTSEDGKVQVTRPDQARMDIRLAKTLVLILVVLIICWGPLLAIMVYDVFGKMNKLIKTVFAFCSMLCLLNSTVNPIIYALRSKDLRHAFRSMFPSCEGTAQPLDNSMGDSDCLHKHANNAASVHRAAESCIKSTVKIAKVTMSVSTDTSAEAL
CB1 receptor (human), sequence (P21554 whole entry): as above

Row | SMILES | EC50 [1] [nM] | IC50 [2] [nM] | inhibition at 0.2 µM [3] [%] | inhibition at 0.2 µM ([3]; test concentration of 0.2 μM, compounds without an IC50 binding value) [%]
1 | CCNC(=O)N1C/C(=C\c2ccc(F)cc2)c2c(c(C(=O)NN3CCCCC3)nn2-c2ccc(Cl)cc2Cl)C1 [Cpd 34, (7E)-1-(2,4-dichloro-phenyl)-7-(4-fluoro-benzylidene)-1,4,6,7-tetrahydro-pyrazolo[4,3-c]pyridine-3,5-dicarboxylic acid 5-ethylamide 3-piperidin-1-ylamide] | 9 | 50 | 12 | 
2 | COc1ccc(/C=C2\CN(C(=O)OC(C)(C)C)Cc3c(C(=O)N[C@H](C)c4ccccc4)nn(-c4ccc(Cl)cc4Cl)c32)cc1 [Cpd 35, (7E)-1-(2,4-dichloro-phenyl)-7-(4-methoxy-benzylidene)-3-[(1R)-1-phenyl-ethylcarbamoyl]-1,4,6,7-tetrahydro-pyrazolo[4,3-c]pyridine-5-carboxylic acid tert-butyl ester] | 4 | 20 | 27 | 
3 | COc1ccc(/C=C2\CN(C(=O)OC(C)(C)C)Cc3c(C(=O)NC(C)c4ccccn4)nn(-c4ccc(Cl)cc4Cl)c32)cc1 (stereo not drawn) [Cpd 36, (7E)-1-(2,4-dichloro-phenyl)-7-(4-methoxy-benzylidene)-3-(1-pyridin-2-yl-ethylcarbamoyl)-1,4,6,7-tetrahydro-pyrazolo[4,3-c]pyridine-5-carboxylic acid tert-butyl ester] | 6 | 40 | 27 | 
4 | COc1ccc(/C=C2\CN(C(=O)OC(C)(C)C)Cc3c(C(=O)NN4CCCCC4)nn(-c4ccc(Cl)cc4Cl)c32)cc1 [Cpd 37, (7E)-1-(2,4-dichloro-phenyl)-7-(4-methoxy-benzylidene)-3-(piperidin-1-ylcarbamoyl)-1,4,6,7-tetrahydro-pyrazolo[4,3-c]pyridine-5-carboxylic acid tert-butyl ester] | 5 | 90 | 27 | 
5 | COc1ccc(/C=C2\CNCc3c(C(=O)N[C@H](C)c4ccccc4)nn(-c4ccc(Cl)cc4Cl)c32)cc1 [Cpd 38, (7E)-1-(2,4-dichloro-phenyl)-7-(4-methoxy-benzylidene)-4,5,6,7-tetrahydro-1H-pyrazolo[4,3-c]pyridine-3-carboxylic acid [(1R)-1-phenyl-ethyl]-amide] | 5 | 10 | 25 | 
6 | C[C@@H](NC(=O)c1nn(-c2ccc(Cl)cc2Cl)c2c1CN(S(=O)(=O)N(C)C)C/C2=C\c1ccc(F)cc1)c1ccccc1 [Cpd 39, (7E)-1-(2,4-dichloro-phenyl)-5-dimethylsulfamoyl-7-(4-fluoro-benzylidene)-4,5,6,7-tetrahydro-1H-pyrazolo[4,3-c]pyridine-3-carboxylic acid [(1R)-1-phenyl-ethyl]-amide] | 1 | 2 |  | 42
7 | COc1ccc(/C=C2\CN(S(C)(=O)=O)Cc3c(C(=O)N[C@H](C)c4ccccc4)nn(-c4ccc(Cl)cc4Cl)c32)cc1 [Cpd 40, (7E)-1-(2,4-dichloro-phenyl)-5-methanesulfonyl-7-(4-methoxy-benzylidene)-4,5,6,7-tetrahydro-1H-pyrazolo[4,3-c]pyridine-3-carboxylic acid [(1R)-1-phenyl-ethyl]-amide] | 1 | 2 | 47 | 
8 | CCNC(=O)N1C/C(=C\c2ccc(OC)cc2)c2c(c(C(=O)N[C@H](C)c3ccccc3)nn2-c2ccc(Cl)cc2Cl)C1 [Cpd 41, (7E)-1-(2,4-dichloro-phenyl)-7-(4-methoxy-benzylidene)-1,4,6,7-tetrahydro-pyrazolo[4,3-c]pyridine-3,5-dicarboxylic acid 5-ethylamide 3-{[(1R)-1-phenyl-ethyl]-amide}] | 0.2 | 9 | 27 | 
9 | COc1ccc(/C=C2\CN(C(C)=O)Cc3c(C(=O)N[C@H](C)c4ccccc4)nn(-c4ccc(Cl)cc4Cl)c32)cc1 [Cpd 42, (7E)-5-acetyl-1-(2,4-dichloro-phenyl)-7-(4-methoxy-benzylidene)-4,5,6,7-tetrahydro-1H-pyrazolo[4,3-c]pyridine-3-carboxylic acid [(1R)-1-phenyl-ethyl]-amide] | 1 | 5 | 38 | 
10 | CCOC(=O)CN1C/C(=C\c2ccc(F)cc2)c2c(c(C(=O)N[C@H](C)c3ccccc3)nn2-c2ccc(Cl)cc2Cl)C1 [Cpd 43, (7E)-[1-(2,4-dichloro-phenyl)-7-(4-fluoro-benzylidene)-3-[(1R)-1-phenyl-ethylcarbamoyl]-1,4,6,7-tetrahydro-pyrazolo[4,3-c]pyridin-5-yl]-acetic acid ethyl ester] | 0.6 | 2 | 36 | 
11 | COC(=O)N1C/C(=C\c2ccc(OC)cc2)c2c(c(C(=O)N[C@H](C)c3ccccc3)nn2-c2ccc(Cl)cc2Cl)C1 [Cpd 44] | 0.2 | 2 | 69 | 
12 | COc1ccc(/C=C2\CN(C=O)Cc3c(C(=O)N[C@H](C)c4ccccc4)nn(-c4ccc(Cl)cc4Cl)c32)cc1 [Cpd 45, (7E)-1-(2,4-dichloro-phenyl)-5-formyl-7-(4-methoxy-benzylidene)-4,5,6,7-tetrahydro-1H-pyrazolo[4,3-c]pyridine-3-carboxylic acid [(1R)-1-phenyl-ethyl]-amide] | 0.1 | 3 | 45 | 
13 | C[C@@H](NC(=O)c1nn(-c2ccc(Cl)cc2Cl)c2c1CN(C=O)C/C2=C\c1ccc(F)cc1)c1ccccc1 [Cpd 46, (7E)-1-(2,4-dichloro-phenyl)-7-(4-fluoro-benzylidene)-5-formyl-4,5,6,7-tetrahydro-1H-pyrazolo[4,3-c]pyridine-3-carboxylic acid [(1R)-1-phenyl-ethyl]-amide] | 0.1 | 6 | 18 | 
14 | CCOC(=O)CN1C/C(=C\c2ccc(OC)cc2)c2c(c(C(=O)N[C@H](C)c3ccccc3)nn2-c2ccc(Cl)cc2Cl)C1 [Cpd 48, (7E)-[1-(2,4-dichloro-phenyl)-7-(4-methoxy-benzylidene)-3-[(1R)-1-phenyl-ethylcarbamoyl]-1,4,6,7-tetrahydro-pyrazolo[4,3-c]pyridin-5-yl]-acetic acid ethyl ester] | 0.2 | 4 | 38 | 
15 | COc1ccc(/C=C2\CNCc3c(C(=O)NC(C)c4ccccn4)nn(-c4ccc(Cl)cc4Cl)c32)cc1 (stereo not drawn) [Cpd 49, (7E)-1-(2,4-dichloro-phenyl)-7-(4-methoxy-benzylidene)-4,5,6,7-tetrahydro-1H-pyrazolo[4,3-c]pyridine-3-carboxylic acid (1-pyridin-2-yl-ethyl)-amide] | 1 | 100 | 19 | 
16 | COc1ccc(/C=C2\CNCc3c(C(=O)NN4CCCCC4)nn(-c4ccc(Cl)cc4Cl)c32)cc1 [Cpd 50, (7E)-1-(2,4-dichloro-phenyl)-7-(4-methoxy-benzylidene)-4,5,6,7-tetrahydro-1H-pyrazolo[4,3-c]pyridine-3-carboxylic acid piperidin-1-ylamide] | 2 | 100 | 20 | 
17 | COc1ccc(/C=C2\CN(S(C)(=O)=O)Cc3c(C(=O)NN4CCCCC4)nn(-c4ccc(Cl)cc4Cl)c32)cc1 [Cpd 53, (7E)-1-(2,4-dichloro-phenyl)-5-methanesulfonyl-7-(4-methoxy-benzylidene)-4,5,6,7-tetrahydro-1H-pyrazolo[4,3-c]pyridine-3-carboxylic acid piperidin-1-ylamide] | 5 | 30 | 29 | 
